From PMC5730604
Positions of bridges follow the written chain, without caps; N, C: chain ends. Non-standard residues stand in square brackets, D forms with d. Residues, ends and D or L forms follow the SMILES beside them. Chains are numbered I, II in the order given. *: point of attachment. PEG28 = NCCOCCOCCOCCOCCOCCOCCOCCOCCOCCOCCOCCOCCOCCOCCOCCOCCOCCOCCOCCOCCOCCOCCOCCOCCOCCOCCOCCOCCC(=O)O; Tyr(3-NO2) = N[C@@H](Cc1ccc(O)c([N+](=O)[O-])c1)C(=O)O; Hyp = O=C(O)[C@@H]1C[C@@H](O)CN1; For = O=C*

How the values were obtained:
[1] = tested on: GPC-16 tumor cells; assay: GPC-16 tumor model in guinea pigs; type: in vivo, Guinea pig
Description: by incubation with a 1:50 dilution of the secondary antibody (biotinylated goat -ant i-r at Ig G, BD Pharmingen, #554014 ). After incubation with horseradish peroxidase (HRP) coupled streptavidin color development was performed using the DAB substrate kit. All immunohistochemical stained tissue sections were counterstained using haemalaun or […]
Assessment of anti-tumor efficacy in the GPC -16 tumor model in guinea pig GPC-16 cells (guinea pig colorectal adenocarcinoma) were acquired from LGC and were cultured in Eagle’s minimum essential medium with 10% FCS and 100 U/ml Penicillin and 100 µg/ml Streptomycin. For each experiment 10 f emale guinea pigs (8- 10 weeks old) per group were immunosuppressed with an intraperitoneal injection of 200 mg/kg cyclophosphamide (CPA) one day bef ore the tumor inoculation and repeated every 7- 10 days for 4 week s. Efficacy of the CPA treatment was verif ied by routine blood analysis bef ore f irst CPA treatment and on a week ly basis thereafter. For the evaluation of the anti-tumor efficacy of the Y9 the 10 animals were divided into two groups of 5 animals. […] The presence of tumors in the sk in sections was evaluated by a board certif ied veterinarian pathologist using a scoring system. […]
T o study whether a repeated subcutaneous dosing of Y9 has any local or systemic toxic effects on animals, the following dose escalation study was performed. […] B ody weig ht and general health observations were evaluated on a daily basis. […] Organs (sk in, brain, heart, k idney, liver, lung, ovaries/testis, spleen, local and distal lymph nodes, mesentery, small intestine, stomach, pancreas) were isolated af ter euthanasia with an isof lurane overdose for histopathology and body weight-normalized organ weights (brain, kidney, heart, liver, spleen) were calculated.
W eights of the carcass, brain, heart, kidney, liver and spleen were determined and body weight-normalized organ weight in % was calculated as follows: […]

[2] = target: immobilized integrin α3β1 (VLA-3) (Homo sapiens, UniProt P26006); assay: biochemical
Description: Single cycle kinetic experiments were conducted on a Biacore 3000 system using a CM5 sensor chip at 25 and 37 °C with a flow rate of 10 µl/min. After coupling of the VLA-3 receptor (R&D Systems) via standard EDC/NHS immobilization chemistry (7 min activation with EDC/NHS followed by a 7 min flush with VLA-3) in 10 mM NaOAc buffer at pH 6 containing 1 mM MnCl2, a […] solution of ethanolamine was injected for 7 min to block all amine reactive sites. Subsequently the analyte was flushed over the chip surface at a flow rate of 10 µl/min in HEPES buffered saline supplemented with 1 mM MnCl2.

[3] = tested on: Balb/c mice; assay: Dose escalation study and acute toxicity; type: in vivo, Mouse
Description: Dose escalation study and evaluation of acute toxicity in mice
T o study whether a repeated subcutaneous dosing of Y9 has any local or systemic toxic effects on animals, the following dose escalation study was performed. Groups of 5 Balb/c mice were inoculated subcutaneously with 100 µl of 0.9 % saline (NaCl) solution containing either 200 nmol, 400 nmol or 800 nmol Y9 . Two control groups (a total of 10 mice) received only 0.9% saline. T he injections were repeated every other day f or a total of seven injections. B ody weig ht and general health observations were evaluated on a daily basis. At day 4 after the last inoculation of the solutions blood was collected under isof lurane anesthesia f or hematology and f or serum analysis by retro- orbital puncture. Organs (sk in, brain, heart, k idney, liver, lung, ovaries/testis, spleen, local and distal lymph nodes, mesentery, small intestine, stomach, pancreas) were isolated af ter euthanasia with an isof lurane overdose for histopathology and body weight-normalized organ weights (brain, kidney, heart, liver, spleen) were calculated.
W eights of the carcass, brain, heart, kidney, liver and spleen were determined and body weight-normalized organ weight in % was calculated as follows:
Body weight-normalized organ weight [%] = organ weight [g] x 100 […]
The following serum parameters were analyzed with the Vitros 250 (Johnson&Johnson) machine measuring parameters at 25°C: […] (CK), alk aline Phosphatase (ALP), Amylase, GOT/AST, GPT/ALT, GGT, LDH, Lipase, total protein (TP), Glucose (GLU), Cholesterol (CHOL), Triglyceride (TRIG), blood urea nitrogen (BUN), Creatinine (CREA), total bilirubin (TBIL), inorganic Phosphorus (PHOS), Sodium (Na), Potassium (K), Calcium (Ca), […]
(MCHC), banded neutrophils, segmented neutrophils, lymphocytes (Lymphs), monocytes (Monos), eosinophils (EOS), basophils (BASO). The organ sections were histopathological […]
pathological abnormalities f ound. […]
glycerin (f inal concentration 227 µg/ml). […]
on a nitrocellulose membrane. For calibration, control serum was spiked with Y9 in […]
The membrane was washed 3
The membrane was f inally washed 3 times in […]
quantitated using Image J software. The calibration samples were used to prepare a linear […]
values of < 0.05 were considered signif icant.

[4] = mice, local s.c. injection of 200 or 500 nmol, dot-blot, detection limit ~1 nM
Description: (§1) according to standard procedures. From 20 ml antiserum, 1.5 mg purified antibody were
(§2) isolated and stored in aliquots at -20 °C in PBS + 0.01% thimerosal, 0.1% BSA diluted 1:1 with
(§3) concentrations between 0.5 nM and 20 nM and s amples were also spotted in triplicates. After
(§4) drying, the membrane was soaked in TBST (150 mM NaCl, 50 mM Tris-HCl, pH 7.4, 0.05%
(§5) tween), blocked for 1 h at RT with 5% nonfat dry milk in TBST. The membrane was washed 3
(§6) 1:2000 in TBST, washed 3 times, incubated 1 h at RT with anti-rabbit-HRP (GE Healthcare)
(§7) diluted 1:5,000 in 5% nonf at dry milk in TBST. The membrane was f inally washed 3 times in
(§8) TBST and then incubated with ECL prime substrate (GE Healthcare). Chemiluminescent
(§9) signals were recorded in an LAS-4000 mini Image reader (Fuji). Spot intensities were
(§10) For the statistical analysis, mean (M) and standard deviation (SD) were calculated. T he
(§11) statistical analysis was p erf ormed with the GraphPad Prism Software, Version 5.0 (Graph Pad,

[5] = in vivo; details: mouse, serum, sc
Description: as §1, §2, §3, §4, §5, §6, §7, §8, §9, §10, §11

[6] = Balb/c mice, s.c. 200, 400 or 800 nmol every two days for 14 days
[7] = highest dose 800 nmol (printed 800 nm), repeated s.c., day 4 after last dose

In the case of `CC[C@H](C)[C@H](NC(=O)[C@H](CCSC)NC=O)C(=O)N[C@@H](Cc1ccccc1)C(=O)N[C@@H](CC(C)C)C(=O)NCC(=O)NCC(=O)N[C@@H](CCCCNC(=O)CCOCCOCCOCCOCCOCCOCCOCCOCCOCCOCCOCCOCCOCCOCCOCCOCCOCCOCCOCCOCCOCCOCCOCCOCCOCCOCCOCCOCCNC(=O)[C@H]1CSSC[C@@H](N)C(=O)N[C@H](CC(=O)O)C(=O)NCC(=O)N[C@@H](Cc2ccc(O)c([N+](=O)[O-])c2)C(=O)NCC(=O)N2C[C@H](O)C[C@H]2C(=O)N[C@@H](CC(N)=O)C(=O)N1)C(=O)N[C@@H](CCCCNC(=O)CCOCCOCCOCCOCCOCCOCCOCCOCCOCCOCCOCCOCCOCCOCCOCCOCCOCCOCCOCCOCCOCCOCCOCCOCCOCCOCCOCCOCCNC(=O)[C@H]1CSSC[C@@H](N)C(=O)N[C@H](CC(=O)O)C(=O)NCC(=O)N[C@@H](Cc2ccc(O)c([N+](=O)[O-])c2)C(=O)NCC(=O)N2C[C@H](O)C[C@H]2C(=O)N[C@@H](CC(N)=O)C(=O)N1)C(=O)O` [Y9] (I: H-[dC][dD]G[Tyr(3-NO2)]G[Hyp]N[dC][PEG28] / II: H-[dC][dD]G[Tyr(3-NO2)]G[Hyp]N[dC][PEG28] / III: For-MIFLGGKK-OH; disulfide I:1-I:8, II:1-II:8; amide I:C-III:7, II:C-III:8), the “animals with tumors present after 35 days” value ([1]; single dose 200 nmol mixed with 1.6–2 × 10^7 GPC-16 cells and Matrigel, s.c., CPA-treated Dunkin Hartley guinea pigs, control 8 out of 9) is reported as 3 out of 10, the “reduction of establishment of GPC-16 based tumor” value ([1]; single dose treatment during injection of tumor cells, guinea pigs) is reported as 67% and the “undesired effects in guinea pigs” value ([1]; single s.c. dose 200 nmol) is reported as “reddening at the injection site”. The Kd [2] was 60 nM, the “hematological analysis including differential hemogram of white blood cells” value ([3]; Balb/c mice, repeated s.c. dosing) was “no significant changes” and the relative organ weights ([3]; Balb/c mice, repeated s.c. dosing, no histopathological abnormalities or steatosis in liver) was “slightly enlarged liver weight”. The “histopathological effects in organs” value ([3]; Balb/c mice, s.c. 200 nmol every two days for 14 days, liver, kidney, pancreas, spleen, heart, lung, ovaries, brain, stomach, intestine, mesentery) was “No histopathological effects”, the “histopathological effects in organs” value ([3]; Balb/c mice, s.c. 400 nmol every two days for 14 days, same organs) was “No histopathological effects” and the kidney histopathology ([3]; Balb/c mice, s.c. 800 nmol every two days for 14 days) was “moderate degenerative changes of the kidney”. The draining lymph nodes [3, 6] was “mild but significant dose-dependent immune infiltration and lymphoid hyperplasia”, the “local effects at the injection site” value [3, 6] was “increased neutrophil and monocyte infiltrates at the injection site” and the “amylase level in serum” value [3, 7] was “significantly increased”. For the same compound, the “blood urea nitrogen (BUN) level in serum” value [3, 7] was “significantly increased”, the “cholesterol level in serum” value [3, 7] was “significantly increased” and the “creatinine (CREA) level in serum” value [3, 7] was “slightly but significant increased”. The “lipase level in serum” value [3, 7] was “slightly but significant increased”, the “triglycerides level in serum” value [3, 7] was “significantly increased” and the “detection of binder peptide in serum after 24 h” value [4] was “still detected”. It also gave a half-life [5] of roughly 2 h, a level at time molar at 1 h ([5]; 200 nmol) of 350 nM and a level at time molar at 7 h ([5]; 200 nmol) of 75 nM.
